Measured values reported in ChEMBL document CHEMBL2440076, “New triarylpyrazoles as broad-spectrum anticancer agents: design, synthesis, and biological evaluation” (Eur J Med Chem, 2013).

How the values were obtained:
MOLT-4 = test: Growth inhibition of human MOLT4 cells after 48 hrs by sulforhodamine B assay; type: functional; settings: MOLT-4, 48 h
LOX IMVI = test: Growth inhibition of human LOXIMVI cells assessed as cell growth at 10 uM after 48 hrs by sulforhodamine B assay; type: functional; settings: read-out: Activity
NCI-H23 = test: Growth inhibition of human NCI-H23 cells after 48 hrs by sulforhodamine B assay; type: functional; settings: NCI-H23, 48 h
Malme-3M = test: Growth inhibition of human MALME-3M cells after 48 hrs by sulforhodamine B assay; type: functional
[1] = Growth inhibition of human Hs 578T cells after 48 hrs by sulforhodamine B assay; type: functional
[2] = Growth inhibition of human Hs 578T cells assessed as cell growth at 10 uM after 48 hrs by sulforhodamine B assay; type: functional; settings: read-out: Activity
HCT-116 = test: Growth inhibition of human HCT116 cells after 48 hrs by sulforhodamine B assay; type: functional; settings: HCT-116, 48 h
MDA-MB-231 = test: Growth inhibition of human MDA-MB-231 cells after 48 hrs by sulforhodamine B assay; type: functional; settings: MDA-MB-231, 48 h
A549 [3] = test: Growth inhibition of human A549/ATCC cells after 48 hrs by sulforhodamine B assay; type: functional; settings: A549, 48 h
NCI-H322M [4] = test: Growth inhibition of human NCI-H322M cells assessed as cell growth at 10 uM after 48 hrs by sulforhodamine B assay; type: functional; settings: read-out: Activity
SF-268 = test: Growth inhibition of human SF268 cells assessed as cell growth at 10 uM after 48 hrs by sulforhodamine B assay; type: functional; settings: SF-268, 48 h, read-out: Activity
UACC-62 = test: Growth inhibition of human UACC62 cells assessed as cell growth at 10 uM after 48 hrs by sulforhodamine B assay; type: functional; settings: UACC-62, 48 h, read-out: Activity
SNB-19 [5] = test: Growth inhibition of human SNB19 cells after 48 hrs by sulforhodamine B assay; type: functional; settings: SNB-19, 48 h
SN12C = test: Growth inhibition of human SN12C cells assessed as cell growth at 10 uM after 48 hrs by sulforhodamine B assay; type: functional; settings: read-out: Activity
MDA-MB-435 = test: Growth inhibition of human MDA-MB-435 cells assessed as cell growth at 10 uM after 48 hrs by sulforhodamine B assay; type: functional; settings: MDA-MB-435, 48 h, read-out: Activity
PC-3 = test: Growth inhibition of human PC3 cells after 48 hrs by sulforhodamine B assay; type: functional, cell-based; settings: PC-3, 48 h
NCI-H460 = test: Growth inhibition of human NCI-H460 cells assessed as cell growth at 10 uM after 48 hrs by sulforhodamine B assay; type: functional; settings: NCI-H460, 48 h, read-out: Activity
RXF 393 [6] = test: Growth inhibition of human RXF393 cells assessed as cell growth at 10 uM after 48 hrs by sulforhodamine B assay; type: functional; settings: RXF 393, 48 h, read-out: Activity
IGROV-1 = test: Growth inhibition of human IGROV1 cells after 48 hrs by sulforhodamine B assay; type: functional; settings: IGROV-1, 48 h
SNB-19 [7] = test: Growth inhibition of human SNB19 cells assessed as cell growth at 10 uM after 48 hrs by sulforhodamine B assay; type: functional; settings: SNB-19, 48 h, read-out: Activity
TK-10 = test: Growth inhibition of human TK10 cells assessed as cell growth at 10 uM after 48 hrs by sulforhodamine B assay; type: functional; settings: TK-10, 48 h, read-out: Activity
HL-60(TB) = test: Growth inhibition of human HL-60(TB) cells assessed as cell growth at 10 uM after 48 hrs by sulforhodamine B assay; type: functional; settings: HL-60, 48 h, read-out: Activity
SF-539 = test: Growth inhibition of human SF539 cells assessed as cell growth at 10 uM after 48 hrs by sulforhodamine B assay; type: functional; settings: SF-539, 48 h, read-out: Activity
BT-549 = test: Growth inhibition of human BT549 cells assessed as cell growth at 10 uM after 48 hrs by sulforhodamine B assay; type: functional; settings: BT-549, 48 h, read-out: Activity
OVCAR-5 = test: Growth inhibition of human OVCAR5 cells after 48 hrs by sulforhodamine B assay; type: functional; settings: OVCAR-5, 48 h
A549 [8] = test: Growth inhibition of human A549/ATCC cells assessed as cell growth at 10 uM after 48 hrs by sulforhodamine B assay; type: functional; settings: A549, 48 h, read-out: Activity
RXF 393 [9] = test: Growth inhibition of human RXF393 cells after 48 hrs by sulforhodamine B assay; type: functional; settings: RXF 393, 48 h
NCI-H322M [10] = test: Growth inhibition of human NCI-H322M cells after 48 hrs by sulforhodamine B assay; type: functional
U-251 = test: Growth inhibition of human U251 cells after 48 hrs by sulforhodamine B assay; type: functional; settings: U-251, 48 h
786-0 = test: Growth inhibition of human 786-0 cells assessed as cell growth at 10 uM after 48 hrs by sulforhodamine B assay; type: functional; settings: 786-0, 48 h, read-out: Activity
MDA-MB-468 = test: Growth inhibition of human MDA-MB-468 cells after 48 hrs by sulforhodamine B assay; type: functional, cell-based; settings: MDA-MB-468, 48 h
HT-29 = test: Growth inhibition of human HT-29 cells after 48 hrs by sulforhodamine B assay; type: functional; settings: HT-29, 48 h
SF-295 = test: Growth inhibition of human SF295 cells after 48 hrs by sulforhodamine B assay; type: functional, cell-based; settings: SF-295, 48 h
SK-MEL-5 = test: Growth inhibition of human SK-MEL-5 cells assessed as cell growth at 10 uM after 48 hrs by sulforhodamine B assay; type: functional; settings: SK-MEL-5, 48 h, read-out: Activity
[11] = read-out: LC50 (the source's name)

For `COc1cc(-c2nn(-c3cccc(NC(=O)c4ccc(N5CCOCC5)c(C(F)(F)F)c4)c3)cc2-c2ccncc2)ccc1Cl`, the GI50 (MOLT-4) was 669 nM, the TGI (MOLT-4) was greater than 100000 nM and the CC50 (MOLT-4; [11]) was greater than 100000 nM. It also gave a growth at 10 µM (LOX IMVI) of 13.7%, a GI50 (NCI-H23) of 870 nM and an LC50 (NCI-H23) greater than 100000 nM. For the same molecule, the TGI (NCI-H23) was 20700 nM, the GI50 (Malme-3M) was 129 nM and the LC50 (concentration killing 50% of starting cells) (Malme-3M) was greater than 100000 nM. It also gave a TGI (Malme-3M) of 5100 nM, a GI50 [1] of 262 nM and a TGI [1] greater than 100000 nM. It also gave a CC50 [1, 11] greater than 100000 nM, a growth at 10 µM [2] of -13.6% and a GI50 (HCT-116) of 400 nM. The TGI (HCT-116) was greater than 100000 nM, the CC50 (HCT-116; [11]) was greater than 100000 nM and the GI50 (MDA-MB-231) was 299 nM. It also gave an LC50 (MDA-MB-231) greater than 100000 nM, a TGI (MDA-MB-231) of 2390 nM and a GI50 (A549 [3]) of 315 nM. For the same molecule, the LC50 (concentration killing 50% of starting cells) (A549 [3]) was greater than 100000 nM, the TGI (A549 [3]) was greater than 100000 nM and the growth at 10 µM (NCI-H322M [4]) was 54.2%. The growth at 10 µM (SF-268) was 22.5%, the growth at 10 µM (UACC-62) was 8.35% and the GI50 (SNB-19 [5]) was 520 nM. For the same molecule, the LC50 (concentration killing 50% of cells) (SNB-19 [5]) was greater than 100000 nM, the TGI (SNB-19 [5]) was greater than 100000 nM and the growth at 10 µM (SN12C) was 31%. For the same molecule, the growth at 10 µM (MDA-MB-435) was -35.1%, the GI50 (PC-3) was 251 nM and the IC50 (PC-3) was 250 nM. For the same molecule, the TGI (PC-3) was 14700 nM, the CC50 (PC-3; [11]) was greater than 100000 nM and the growth at 10 µM (NCI-H460) was 5.02%. It also gave a growth at 10 µM (RXF 393 [6]) of -45.2%, a GI50 (IGROV-1) of 437 nM and an LC50 (concentration killing 50% of cells) (IGROV-1) greater than 100000 nM. It also gave a TGI (IGROV-1) of 6790 nM, a growth at 10 µM (SNB-19 [7]) of 45.1% and a growth at 10 µM (TK-10) of 17.8%. It also gave a growth at 10 µM (HL-60(TB)) of -8.08%, a growth at 10 µM (SF-539) of -68.9% and a growth at 10 µM (BT-549) of 14.3%. The GI50 (OVCAR-5) was 1450 nM, the LC50 (concentration killing 50% of cells) (OVCAR-5) was greater than 100000 nM and the TGI (OVCAR-5) was greater than 100000 nM. For the same molecule, the growth at 10 µM (A549 [8]) was 3.58%, the GI50 (RXF 393 [9]) was 199 nM and the LC50 (concentration killing 50% of cells) (RXF 393 [9]) was greater than 100000 nM. It also gave a TGI (RXF 393 [9]) of 674 nM, a GI50 (NCI-H322M [10]) of 603 nM and a TGI (NCI-H322M [10]) of 94400 nM. The CC50 (NCI-H322M [10]; [11]) was greater than 100000 nM, the GI50 (U-251) was 399 nM and the LC50 (concentration killing 50% of cells) (U-251) was 60700 nM. It also gave a TGI (U-251) of 3950 nM, a growth at 10 µM (786-0) of -3.26% and a GI50 (MDA-MB-468) of 183 nM. For the same molecule, the IC50 (MDA-MB-468) was 180 nM, the TGI (MDA-MB-468) was 781 nM and the CC50 (MDA-MB-468; [11]) was 5530 nM. For the same molecule, the GI50 (HT-29) was 380 nM, the TGI (HT-29) was 1520 nM and the CC50 (HT-29; [11]) was greater than 100000 nM. The GI50 (SF-295) was 150 nM, the IC50 (SF-295) was 150 nM and the TGI (SF-295) was 1150 nM. For the same molecule, the CC50 (SF-295; [11]) was 6310 nM and the growth at 10 µM (SK-MEL-5) was 3.41%.
